Data as given in BindingDB's records for doi:10.1111/cbdd.12546 (Zhejiang University of Technology, 2015).

Molecular target: Glycogen synthase kinase-3 beta (Homo sapiens, UniProt P49841)
Assay: Kinase Assay

Glycogen synthase kinase-3 beta, sequence (P49841 whole entry): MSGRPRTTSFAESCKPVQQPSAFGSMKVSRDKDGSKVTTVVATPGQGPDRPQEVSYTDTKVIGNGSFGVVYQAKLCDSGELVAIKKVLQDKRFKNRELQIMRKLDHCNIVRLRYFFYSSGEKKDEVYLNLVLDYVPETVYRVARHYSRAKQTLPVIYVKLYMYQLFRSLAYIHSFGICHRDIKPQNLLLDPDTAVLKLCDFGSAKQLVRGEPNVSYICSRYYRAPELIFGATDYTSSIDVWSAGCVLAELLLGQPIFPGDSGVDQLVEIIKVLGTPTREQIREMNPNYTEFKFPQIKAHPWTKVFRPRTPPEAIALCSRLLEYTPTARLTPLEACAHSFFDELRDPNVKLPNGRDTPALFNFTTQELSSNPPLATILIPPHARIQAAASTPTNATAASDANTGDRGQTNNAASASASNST

Structure (SMILES) | IC50 [nM]
Cn1cc(C2=C(c3coc4ncccc34)C(=O)NC2=O)c2cc(Cl)ccc21 [3-(5-Chloro-1-methyl-1H-indol-3-yl)-4-(furo[2,3-b]pyridin-3-yl)-1H-pyrrole-2,5-dione (5f)] | 170
O=C1NC(=O)C(c2cn(CCCN3CCOCC3)c3ccccc23)=C1c1coc2ncccc12 [3-(Furo[2,3-b]pyridin-3-yl)-4-(1-(3-morpholinopropyl)-1H-indol-3-yl)-1H-pyrrole-2,5-dione (5r)] | 690
O=C1NC(=O)C(c2cn(CCCn3ccnc3)c3ccc(Cl)cc23)=C1c1coc2ncccc12 [3-(1-(3-(1H-Imidazol-1-yl)propyl)-5-chloro-1H-indol-3-yl)-4-(furo[2,3-b]pyridin-3-yl)-1H-pyrrole-2,5-dione (5p)] | 240
Cc1cccc2c(C3=C(c4coc5ncccc45)C(=O)NC3=O)cn(C)c12 [3-(1,7-dimethyl-1H-indol-3-yl)-4-(furo[2,3-b]pyridin-3-yl)-1H-pyrrole-2,5-dione (5c)] | 290
O=C1NC(=O)C(c2coc3ncccc23)=C1c1c[nH]c2ccccc12 [3-(Furo[2,3-b]pyridin-3-yl)-4-(1H-indol-3-yl)-1H-pyrrole-2,5-dione (5a)] | 1780
C=CCn1cc(C2=C(c3coc4ncccc34)C(=O)NC2=O)c2ccccc21 [3-(1-Allyl-1H-indol-3-yl)-4-(furo[2,3-b]pyridin-3-yl)-1H-pyrrole-2,5-dione (5k)] | 530
CCCCn1cc(C2=C(c3coc4ncccc34)C(=O)NC2=O)c2ccccc21 [3-(1-Butyl-1H-indol-3-yl)-4-(furo[2,3-b]pyridin-3-yl)-1H-pyrrole-2,5-dione (5l)] | 570
Cn1cc(C2=C(c3coc4ncccc34)C(=O)NC2=O)c2ccc(Cl)cc21 [3-(6-Chloro-1-methyl-1H-indol-3-yl)-4-(furo[2,3-b]pyridin-3-yl)-1H-pyrrole-2,5-dione (5g)] | 1840
O=C1NC(=O)C(c2cn(CCCn3ccnc3)c3ccc(Br)cc23)=C1c1coc2ncccc12 [3-(1-(3-(1H-Imidazol-1-yl)propyl)-5-bromo-1H-indol-3-yl)-4-(furo[2,3-b]pyridin-3-yl)-1H-pyrrole-2,5-dione (5o)] | 190
Cn1cc(C2=C(c3coc4ncccc34)C(=O)NC2=O)c2ccc(F)cc21 [3-(6-Fluoro-1-methyl-1H-indol-3-yl)-4-(furo[2,3-b]pyridin-3-yl)-1H-pyrrole-2,5-dione (5e)] | 560
Cn1cc(C2=C(c3coc4ncccc34)C(=O)NC2=O)c2ccc(Br)cc21 [3-(6-Bromo-1-methyl-1H-indol-3-yl)-4-(furo[2,3-b]pyridin-3-yl)-1H-pyrrole-2,5-dione (5i)] | 1940
Cn1cc(C2=C(c3coc4ncccc34)C(=O)NC2=O)c2ccccc21 [3-(Furo[2,3-b]pyridin-3-yl)-4-(1-methyl-1H-indol-3-yl)-1H-pyrrole-2,5-dione (5b)] | 280
Cn1cc(C2=C(c3coc4ncccc34)C(=O)NC2=O)c2cc(F)ccc21 [3-(5-Fluoro-1-methyl-1H-indol-3-yl)-4-(furo[2,3-b]pyridin-3-yl)-1H-pyrrole-2,5-dione (5d)] | 390
COc1ccc2c(c1)c(C1=C(c3coc4ncccc34)C(=O)NC1=O)cn2C [3-(Furo[2,3-b]pyridin-3-yl)-4-(5-methoxy-1-methyl-1H-indol-3-yl)-1H-pyrrole-2,5-dione (5j)] | 1310
O=C1NC(=O)C(c2cn(CCCO)c3ccccc23)=C1c1coc2ncccc12 [3-(Furo[2,3-b]pyridin-3-yl)-4-(1-(3-hydroxypropyl)-1H-indol-3-yl)-1H-pyrrole-2,5-dione (5q)] | 310
O=C1NC(=O)C(c2cn(CCCn3ccnc3)c3ccccc23)=C1c1coc2ncccc12 [3-(1-(3-(1H-Imidazol-1-yl)propyl)-1H-indol-3-yl)-4-(furo[2,3-b]pyridin-3-yl)-1H-pyrrole-2,5-dione (5n)] | 210
CC(C)n1cc(C2=C(c3coc4ncccc34)C(=O)NC2=O)c2ccccc21 [3-(Furo[2,3-b]pyridin-3-yl)-4-(1-isopropyl-1H-indol-3-yl)-1H-pyrrole-2,5-dione (5m)] | 190
Cn1cc(C2=C(c3coc4ncccc34)C(=O)NC2=O)c2cc(Br)ccc21 [3-(5-Bromo-1-methyl-1H-indol-3-yl)-4-(furo[2,3-b]pyridin-3-yl)-1H-pyrrole-2,5-dione (5h)] | 70
